Assay results: PubChem BioAssay AID1963972 (Molecular Pharmacology Branch, DTP, NCI, 2024)

Test system: 945468-187-T-J2-PDC spheroids viability
Assay: Anticancer human tumor 945468-187-T-J2-PDC patient-derived rectal carcinoma cell line growth inhibition [PI3K]
Details: spheroids with HUVEC and MSC; for IC50: curve of first compound; for viability, T/C: stronger effect = lower value
Summary of the method: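 Tumor cells were combined with HUVEC and MSCs into spheroids, then dosed with PI3K-inhibitor combinations over half-log ranges capped near clinical Cmax or 10 microM.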

[1] = second compound 0.0316 µM, first compound 0.0316 µM
[2] = second compound 0.0316 µM, first compound 0.1 µM
[3] = second compound 0.1 µM, first compound 0.0316 µM
[4] = second compound 0.1 µM, first compound 0.1 µM
[5] = second compound 0.316 µM, first compound 0.0316 µM
[6] = second compound 0.316 µM, first compound 0.1 µM
[7] = second compound 1 µM, first compound 0.0316 µM
[8] = second compound 1 µM, first compound 0.1 µM
[9] = second compound 3.16 µM, first compound 0.0316 µM
[10] = second compound 3.16 µM, first compound 0.1 µM
[11] = second compound 10 µM, first compound 0.0316 µM
[12] = second compound 10 µM, first compound 0.1 µM
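Further: spheroids exposed to compounds for seven days before reading.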

## CC(C)n1nc(-c2ccc3oc(N)nc3c2)c2c(N)ncnc21 + CC(Nc1ncnc2nc[nH]c12)c1cc2cccc(Cl)c2c(=O)n1-c1ccccc1
Second compound 0.0316 µM
  IC50: > 0.1 µM
Second compound 0.1 µM
  IC50: > 0.1 µM
Second compound 0.316 µM
  IC50: > 0.1 µM
Second compound 1 µM
  IC50: > 0.1 µM
Second compound 3.16 µM
  IC50: > 0.1 µM
Second compound 10 µM
  IC50: > 0.1 µM
Second compound 0.0316 µM, first compound 0.000316 µM
  viability, T/C: 93.8%
Second compound 0.0316 µM, first compound 0.001 µM
  viability, T/C: 87.3%
Second compound 0.0316 µM, first compound 0.00316 µM
  viability, T/C: 96.4%
Second compound 0.0316 µM, first compound 0.01 µM
  viability, T/C: 107%
[1]
  viability, T/C: 117%
[2]
  viability, T/C: 62.8%
Second compound 0.1 µM, first compound 0.000316 µM
  viability, T/C: 96.2%
Second compound 0.1 µM, first compound 0.001 µM
  viability, T/C: 94.3%
Second compound 0.1 µM, first compound 0.00316 µM
  viability, T/C: 99.4%
Second compound 0.1 µM, first compound 0.01 µM
  viability, T/C: 84.2%
[3]
  viability, T/C: 115%
[4]
  viability, T/C: 73.5%
Second compound 0.316 µM, first compound 0.000316 µM
  viability, T/C: 97.1%
Second compound 0.316 µM, first compound 0.001 µM
  viability, T/C: 89%
Second compound 0.316 µM, first compound 0.00316 µM
  viability, T/C: 94.7%
Second compound 0.316 µM, first compound 0.01 µM
  viability, T/C: 134%
[5]
  viability, T/C: 96.1%
[6]
  viability, T/C: 71%
Second compound 1 µM, first compound 0.000316 µM
  viability, T/C: 87.6%
Second compound 1 µM, first compound 0.001 µM
  viability, T/C: 136%
Second compound 1 µM, first compound 0.00316 µM
  viability, T/C: 95.8%
Second compound 1 µM, first compound 0.01 µM
  viability, T/C: 93.2%
[7]
  viability, T/C: 78.2%
[8]
  viability, T/C: 55%
Second compound 3.16 µM, first compound 0.000316 µM
  viability, T/C: 85.5%
Second compound 3.16 µM, first compound 0.001 µM
  viability, T/C: 107%
Second compound 3.16 µM, first compound 0.00316 µM
  viability, T/C: 90.3%
Second compound 3.16 µM, first compound 0.01 µM
  viability, T/C: 106%
[9]
  viability, T/C: 92.9%
[10]
  viability, T/C: 62.3%
Second compound 10 µM, first compound 0.000316 µM
  viability, T/C: 109%
Second compound 10 µM, first compound 0.001 µM
  viability, T/C: 84.5%
Second compound 10 µM, first compound 0.00316 µM
  viability, T/C: 108%
Second compound 10 µM, first compound 0.01 µM
  viability, T/C: 88.4%
[11]
  viability, T/C: 78.2%
[12]
  viability, T/C: 82.8%

## CCCS(=O)(=O)Nc1ccc(F)c(C(=O)c2c[nH]c3ncc(-c4ccc(Cl)cc4)cc23)c1F + CC(Nc1ncnc2nc[nH]c12)c1cc2cccc(Cl)c2c(=O)n1-c1ccccc1
Second compound 0.0316 µM
  IC50: 4.52 µM
Second compound 0.1 µM
  IC50: 5.03 µM
Second compound 0.316 µM
  IC50: 5.4 µM
Second compound 1 µM
  IC50: 5.82 µM
Second compound 3.16 µM
  IC50: 5.92 µM
Second compound 10 µM
  IC50: 5.63 µM
[1]
  viability, T/C: 105%
[2]
  viability, T/C: 103%
Second compound 0.0316 µM, first compound 0.316 µM
  viability, T/C: 104%
Second compound 0.0316 µM, first compound 1 µM
  viability, T/C: 89.2%
Second compound 0.0316 µM, first compound 3.16 µM
  viability, T/C: 73.4%
Second compound 0.0316 µM, first compound 10 µM
  viability, T/C: 2.78%
[3]
  viability, T/C: 132%
[4]
  viability, T/C: 83.2%
Second compound 0.1 µM, first compound 0.316 µM
  viability, T/C: 89%
Second compound 0.1 µM, first compound 1 µM
  viability, T/C: 93.8%
Second compound 0.1 µM, first compound 3.16 µM
  viability, T/C: 83.8%
Second compound 0.1 µM, first compound 10 µM
  viability, T/C: 4.23%
[5]
  viability, T/C: 107%
[6]
  viability, T/C: 110%
Second compound 0.316 µM, first compound 0.316 µM
  viability, T/C: 85.2%
Second compound 0.316 µM, first compound 1 µM
  viability, T/C: 107%
Second compound 0.316 µM, first compound 3.16 µM
  viability, T/C: 89.6%
Second compound 0.316 µM, first compound 10 µM
  viability, T/C: 4.32%
[7]
  viability, T/C: 104%
[8]
  viability, T/C: 99.2%
Second compound 1 µM, first compound 0.316 µM
  viability, T/C: 93%
Second compound 1 µM, first compound 1 µM
  viability, T/C: 99.6%
Second compound 1 µM, first compound 3.16 µM
  viability, T/C: 108%
Second compound 1 µM, first compound 10 µM
  viability, T/C: 4.79%
[9]
  viability, T/C: 98.6%
[10]
  viability, T/C: 106%
Second compound 3.16 µM, first compound 0.316 µM
  viability, T/C: 100%
Second compound 3.16 µM, first compound 1 µM
  viability, T/C: 98.8%
Second compound 3.16 µM, first compound 3.16 µM
  viability, T/C: 113%
Second compound 3.16 µM, first compound 10 µM
  viability, T/C: 5.45%
[11]
  viability, T/C: 98.2%
[12]
  viability, T/C: 93.9%
Second compound 10 µM, first compound 0.316 µM
  viability, T/C: 101%
Second compound 10 µM, first compound 1 µM
  viability, T/C: 95.6%
Second compound 10 µM, first compound 3.16 µM
  viability, T/C: 93.5%
Second compound 10 µM, first compound 10 µM
  viability, T/C: 6.8%
